Biological target: T1, Msh2–Msh6 (Saccharomyces cerevisiae, UniProt P25847+Q03834, Q03834:K988R)
T1 sequence (P25847 1-964): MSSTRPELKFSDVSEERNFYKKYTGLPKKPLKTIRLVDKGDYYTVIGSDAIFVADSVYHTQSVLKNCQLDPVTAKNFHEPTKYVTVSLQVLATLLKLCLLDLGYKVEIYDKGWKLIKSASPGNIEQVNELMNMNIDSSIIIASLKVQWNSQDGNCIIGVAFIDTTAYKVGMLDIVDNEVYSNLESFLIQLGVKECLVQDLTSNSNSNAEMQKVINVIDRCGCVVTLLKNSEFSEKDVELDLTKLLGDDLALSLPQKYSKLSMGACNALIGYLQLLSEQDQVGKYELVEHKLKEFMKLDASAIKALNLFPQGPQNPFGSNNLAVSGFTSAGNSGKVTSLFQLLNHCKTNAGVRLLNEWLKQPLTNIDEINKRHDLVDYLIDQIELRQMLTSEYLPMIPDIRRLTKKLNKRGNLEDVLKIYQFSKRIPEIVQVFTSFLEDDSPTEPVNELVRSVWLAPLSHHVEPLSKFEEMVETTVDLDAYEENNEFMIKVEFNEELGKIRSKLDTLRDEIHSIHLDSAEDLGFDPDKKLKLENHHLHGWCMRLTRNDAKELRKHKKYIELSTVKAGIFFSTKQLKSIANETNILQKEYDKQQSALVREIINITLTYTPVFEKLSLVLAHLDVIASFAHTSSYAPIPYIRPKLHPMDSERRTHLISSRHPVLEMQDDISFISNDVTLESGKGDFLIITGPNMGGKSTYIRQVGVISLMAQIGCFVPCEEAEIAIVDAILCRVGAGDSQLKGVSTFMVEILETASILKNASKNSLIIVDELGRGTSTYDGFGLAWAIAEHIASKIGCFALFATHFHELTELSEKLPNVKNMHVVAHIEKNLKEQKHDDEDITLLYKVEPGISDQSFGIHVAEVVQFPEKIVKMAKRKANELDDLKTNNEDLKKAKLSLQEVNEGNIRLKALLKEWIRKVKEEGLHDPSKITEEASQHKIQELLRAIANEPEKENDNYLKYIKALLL
T1 sequence (Q03834 1-1242 K988R): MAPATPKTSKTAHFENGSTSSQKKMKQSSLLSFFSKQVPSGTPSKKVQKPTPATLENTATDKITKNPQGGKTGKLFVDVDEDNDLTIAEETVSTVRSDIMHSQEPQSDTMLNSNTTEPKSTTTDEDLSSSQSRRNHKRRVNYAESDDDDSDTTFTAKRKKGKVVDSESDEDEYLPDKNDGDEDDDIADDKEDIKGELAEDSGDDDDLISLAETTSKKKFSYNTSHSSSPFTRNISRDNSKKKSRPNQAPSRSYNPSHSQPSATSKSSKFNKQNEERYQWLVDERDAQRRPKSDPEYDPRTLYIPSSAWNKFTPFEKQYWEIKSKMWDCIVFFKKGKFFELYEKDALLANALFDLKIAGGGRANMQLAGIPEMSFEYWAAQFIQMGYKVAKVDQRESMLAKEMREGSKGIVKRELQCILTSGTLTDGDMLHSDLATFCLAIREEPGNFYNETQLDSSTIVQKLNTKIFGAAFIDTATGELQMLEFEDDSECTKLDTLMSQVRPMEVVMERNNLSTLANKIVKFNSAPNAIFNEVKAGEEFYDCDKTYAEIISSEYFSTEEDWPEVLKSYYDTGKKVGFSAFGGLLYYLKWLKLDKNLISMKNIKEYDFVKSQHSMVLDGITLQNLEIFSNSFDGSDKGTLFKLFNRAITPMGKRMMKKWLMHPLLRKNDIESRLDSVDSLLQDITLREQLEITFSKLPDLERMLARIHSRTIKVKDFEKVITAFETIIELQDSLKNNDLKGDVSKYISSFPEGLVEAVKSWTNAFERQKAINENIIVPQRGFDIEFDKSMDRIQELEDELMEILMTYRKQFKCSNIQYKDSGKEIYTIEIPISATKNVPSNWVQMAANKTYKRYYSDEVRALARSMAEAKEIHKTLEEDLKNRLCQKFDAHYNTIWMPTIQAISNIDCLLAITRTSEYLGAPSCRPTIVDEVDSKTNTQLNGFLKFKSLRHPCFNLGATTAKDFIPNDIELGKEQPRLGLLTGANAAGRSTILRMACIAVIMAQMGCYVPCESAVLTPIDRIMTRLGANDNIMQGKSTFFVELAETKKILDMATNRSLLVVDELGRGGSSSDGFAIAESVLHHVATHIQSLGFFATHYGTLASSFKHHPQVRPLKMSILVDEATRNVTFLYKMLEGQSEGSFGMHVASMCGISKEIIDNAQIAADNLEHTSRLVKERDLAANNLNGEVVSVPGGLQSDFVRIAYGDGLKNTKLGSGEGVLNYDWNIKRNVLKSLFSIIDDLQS
Experiment: UV cross-linking of [γ-32P]ATP, SDS-PAGE, phosphorimaging
Type: binding
Details: labelled compound; no Mg2+, EDTA, pH 8, on ice; Msh2 site at 60 μM ATP, Msh6 site at 1 μM ATP

## Nc1ncnc2c1ncn2[C@@H]1O[C@H](COP(=O)(O)OP(=O)(O)OP(=O)(O)O)[C@@H](O)[C@H]1O [ATP]
  relative ATP binding: Msh2–Msh6(K988A) and Msh2–Msh6(K988R) mutant complexes had partial ATP binding defects at the Msh2 subunit

Source: PMC6254361, “The properties of Msh2–Msh6 ATP binding mutants suggest a signal amplification mechanism in DNA mismatch repair” (The Journal of Biological Chemistry, 2018)
